Values quoted from earlier work, collected in patent publication US7329419B2, “Herbal supplement to support weight loss” (Herbalife International, Inc., priority 2004, dated 2008).

Legend:
muscle tissues = details: animal studies

Row | Substance | energy expenditure (metabolic rate) in muscle tissues (muscle tissues) | increase in metabolism (compared to control) | respiratory quotient (in vivo)
1 | Gingerols | increase energy expenditure |  | 
2 | epigallocatechin-3-gallate [EGCG] |  | approximately 5% | lowers the respiratory quotient
